Consider one compound from patent publication US6030950A, “Pharmaceutical therapeutic use of glutathione derivative” (priority 1987, dated 2000).

Each structure is given as a SMILES string. Where two headings read alike, the source gives them in different places.

For data set [1] the following is noted: rabbit ear venous blood, oxygen deficiency stress, 10 mg/kg, 5-10 minutes after administration; n=30. As for the experimental part:
2.1) Animal Experiments with rabbits to improve and/or normalize the redox status of the blood:
In 5 different rabbits, the following parameters were measured by the method and with the instrument of VINCENT in 30 experiments in venous blood:
redox potential E H or electron potential: rH2
The values were measured in the venous blood of the ear after a defined oxygen deficiency stress.
The following values were determined 5-10 minutes after the glutathione one was administered:
Boundary conditions: Temperature of 20° C., air pressure of 767 mm Hg.

Data set [2] concerns malignant melanoma from man. Particulars: 300 mg three times per week. The text has this: 2.4) Experiment with 40 healthy gray mice after transplantation of a malignant melanoma from person.
Forty healthy gray mice were inoculated with 10^6 malignant melanoma cells each.
III.1 Experiment with 40 healthy gray mice after transplantation of a malignant melanoma from person.

The conditions of data set [3]: cited from earlier work.
The subject of another data set is human erythrocytes. The settings on record: incubation with 0.5 mg of reduced glutathione, 37° C., 30 minutes; 10 mL heparinised venous blood; n=20, average and standard deviation. As for the experimental part:
1.1) In vitro experiment with human erythrocytes to improve and normalize the redox behavior:
Human venous blood (10 mL) was taken from each of 20 patients with different diseases and prevented from clotting by the addition of heparin.

The conditions of data set [4]: in vivo.
For data set [5], the target named is glucose-6-phosphate dehydrogenase (Homo sapiens, UniProt P11413). The settings on record: incubation with 0.5 mg reduced glutathione, 37° C., 30 minutes; n=22, average and standard deviation. From the text: (§1) 1.2) In vitro experiment on cell systems of human erythrocytes Under the same conditions as those for the experiment described above, the enzymes, glucose-6-phosphate dehydrogenase and glutathione reductase, from the erythrocytes of 22 patients, were investigated in vitro. n=22 (average value and standard deviation are given)

The target of a further data set is glutathione reductase (Homo sapiens, UniProt P00390). Particulars: incubation with 0.5 mg reduced glutathione, 37° C., 30 minutes; n=22, average and standard deviation.
Excerpt: as §1

The conditions of data set [6]: cited from earlier work. This is another data set of the same source.
For data set [7] the following is noted: human blood, oxygen deficiency stress, 600 mg slowly intravenously, 10 minutes after administration; n=50. The protocol:
2.2) Self-experiment on man to improve and/or normalize the redox status of the blood:
After a defined oxygen deficiency stress, the same parameters were determined in human blood as in the trial described above. In all 50 trials were carried out on different days
After that, glutathione was slowly administered intravenously in an amount of 600 mg.
Boundary conditions: Temperature of 20° C., air pressure of 758-770 mm Hg.

Chain of glutathione reductase (P00390 44-522): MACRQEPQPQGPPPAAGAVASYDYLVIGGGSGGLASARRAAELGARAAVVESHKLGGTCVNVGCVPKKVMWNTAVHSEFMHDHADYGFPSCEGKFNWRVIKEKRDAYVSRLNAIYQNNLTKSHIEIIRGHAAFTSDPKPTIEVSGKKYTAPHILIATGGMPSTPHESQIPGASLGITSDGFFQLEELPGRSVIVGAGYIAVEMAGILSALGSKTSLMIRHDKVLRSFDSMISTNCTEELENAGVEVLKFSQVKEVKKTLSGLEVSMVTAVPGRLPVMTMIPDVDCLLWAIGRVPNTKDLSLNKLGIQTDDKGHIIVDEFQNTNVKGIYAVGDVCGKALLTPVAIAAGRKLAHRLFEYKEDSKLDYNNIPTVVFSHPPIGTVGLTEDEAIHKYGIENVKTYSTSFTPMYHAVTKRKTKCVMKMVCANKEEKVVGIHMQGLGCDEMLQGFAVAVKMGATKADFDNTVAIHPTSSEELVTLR
Chain of glucose-6-phosphate dehydrogenase (P11413 2-515 limits assumed): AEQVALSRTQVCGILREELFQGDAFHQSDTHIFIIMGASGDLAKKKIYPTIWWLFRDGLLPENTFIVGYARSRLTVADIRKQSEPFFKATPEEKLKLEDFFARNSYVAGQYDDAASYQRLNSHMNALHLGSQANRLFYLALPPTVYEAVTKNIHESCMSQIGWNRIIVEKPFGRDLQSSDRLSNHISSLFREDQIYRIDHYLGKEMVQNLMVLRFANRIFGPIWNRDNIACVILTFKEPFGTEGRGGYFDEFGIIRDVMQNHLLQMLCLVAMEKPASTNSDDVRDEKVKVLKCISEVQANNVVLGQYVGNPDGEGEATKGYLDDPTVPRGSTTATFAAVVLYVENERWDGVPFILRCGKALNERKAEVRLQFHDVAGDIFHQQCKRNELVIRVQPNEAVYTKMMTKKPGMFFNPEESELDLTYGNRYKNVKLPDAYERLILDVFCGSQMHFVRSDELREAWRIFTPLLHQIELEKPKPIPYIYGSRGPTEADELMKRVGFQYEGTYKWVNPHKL

In the case of `N[C@@H](CCC(=O)N[C@@H](CS)C(=O)NCC(=O)O)C(=O)O` [reduced glutathione, gamma-glutamyl-cysteinyl-glycine], in data set [1], the “redox potential or electron potential rH2” value came out at 21.8 ± 0.95. Also, in data set [2] (30 mice, 10^6 melanoma cells), the “further animals died within 20 days” value was “five” and the “further animals died within 30 days” value was “seven”. Moreover, the “animals died within 15 days” value in data set [2] (30 mice, 10^6 melanoma cells, untreated controls died within 8-12 days) was “three”. Also, the “share of treated animals that survived the period of observation” value in [2] (30 days after inoculation) is given as 50%. Moreover, in data set [2] (of 30 treated mice, 30 days after inoculation), the “animals that survived the period of observation” value was “Fifteen”. In data set [3] (ethanol), the solubility in ethanol result is on record as “soluble”. Besides, in [3] (water and physiological salt solution), the “solubility in water and physiological salt solution” value is reported as “readily soluble”. Besides, the “content of intraerythrocytic reduced glutathione, value of incubation” value in the data set on human erythrocytes is 1.99±0.15 mU. The “toxicity of the therapeutic dosage” value in data set [4] is “nontoxic”. In data set [5], the “glucose-6-phosphate dehydrogenase, value after incubation” value is listed as 179±16 mU/10^9 erys. In addition, at glutathione reductase, the “glutathione reductase, value after incubation” value was 11.3±1.2 U/10^11 erys. Moreover, the “pK value for COOH(1)” value in [6] (COOH(1)) was 3.53. Also, the “pK value for COOH(2)” value in data set [6] (COOH(2)) is 2.12. Moreover, the “pK value for NH3+” value in data set [6] (NH3^+) is given as 8.66. For the same compound, the “pK value for SH” value in data set [6] (SH) is given as 9.66. Also, the “redox potential or electron potential rH2” value in data set [7] is given as 23.1 ± 1.4.
